# Experimental data published in patent publication US20240415790A1, “A COMPOSITION FOR USE IN THE TREATMENT OF INTERVERTEBRAL DISC HERNIATION” (STAYBLE THERAPEUTICS AB, priority 2020, published 2024).
# Values joined by “and” are separate entries in the source; they are usually repeats but may differ in a detail not shown here. Equal entries are not always repeated.
# Key:
# porcine IVD = experiment: T2-weighted MRI and photographs of porcine IVD after LA (series 3), disc height and width; assay type: in vivo; conditions: pig
# Protocol: Since effects of LA on the NP in the subsequent clinical study was planned to be assessed using MRI, the third series focused on the effects of LA (0.2 mL, 60 mg/mL) on sclerotization as measured by T2-weighted MRI. In addition, effects of LA on the expression of collagen I and II were studied by immunohistochemistry (IHC). […] MR images were obtained using a 7T small animal MRI system (Bruker Biospec). A single 50 mm volume coil array was used (Tx/Rx). The dissected spines were stripped of the attached muscles, the spinous processes, transverse processes, and posterior aspects of the facet joints to allow them to fit in the MRI system. T2-weighted (TR: 2500-2834 ms, TE: 33-35.84 ms), 2D TurboRARE transversal and sagittal sequences were used. The TR and TE could not be maintained the same for all sequences due to required adjustments in field of view the different specimens, leading to an increased pixel matrix which affected the TR and TE. For the transverse sequences, a 500 μm slice thickness with 750 μm interslice distance and an in-plane resolution of 166×166 μm was used. For the sagittal sequences, a 750 μm slice thickness with 2000 μm interslice distance and an in-place resolution of 166×166 μm was used. […] Images were analyzed using Sante DICOM Viewer (version 8.1.5, Santesoft, Athens, Greece). The treated IVDs in all animals were assessed, and the IVD one level above the treated IVD was scanned as control. The size of the NP was quantified using both MR images and photographs of the IVDs (see FIG. 6). The results from the macroscopic and MR analyses were then correlated. […] The relative disc height was expressed as a ratio of height of treated IVD/height of untreated (control) IVD. Analogously, the relative disc width was expressed as a ratio of width of treated IVD/width of untreated (control) IVD.
# [1] = test system: porcine lumbar spine (L3/4 IVD); experiment: Flexural rigidity of the isolated porcine lumbar spine after intradiscal LA (series 1); assay type: in vivo, pig; conditions: 28 days
# Protocol: The pigs were pre-medicated by intramuscular injection of dexmedetomidin (Domitor®vet, Orion Pharma, Sollentuna, Sweden) and a commercial mixture of zolazepam and tiletamine (Zoletil®vet 100, Virbac, Carros, France) in conventional doses. Anesthesia was maintained by buprenophine ([…], Orion Pharma) 0.03 mg/kg intramuscularly, carpofen (Rimadyl®vet, Orion Pharma) 4 mg/kg intravenously and isoflurane ([…] Pharma AB, Stockholm, Sweden) using a Servo 900 respirator (Siemens, Munich, Germany). Before recovering from anesthesia, atipamezol (Antisedan®vet, Orion Pharma) was given intramuscularly. On the first three days after surgery the pigs received oral carprofen 2 mg/kg twice daily. The pigs were placed on the right side. […] The concentration was determined based on the pilot experiments on the effects of LA on collagen secretion from human NP cells (as described in WO 2017/046030). […] The height and width of normally appearing NP (FIG. 6a) in the anteroposterior (short vertical double arrow) and bilateral (short horizontal double arrow) directions, respectively, were measured and expressed in relation to the height (long vertical double arrow), and width (long horizontal double arrow) of the IVD. […] The distances between the lateral processes of the vertebrae cranially and caudally to the injected IVD was measured with a caliper at full ipsi- or contralateral flexion. […]
# [2] = individual animals 1-5, LA 0.2 mL 60 mg/mL
# [3] = mean of 5 animals, LA 0.2 mL 60 mg/mL
structure (smiles),measurement,setting,value
"CC(O)C(=O)O (centres unmarked) [LA, lactic acid]",Height of the treated IVD on MR image (FIG. 12),"porcine IVD; 60 mg/ml LA, 30 days prior to the image, vs untreated control IVD",significant reduction in height
same,T2-weighted MRI intensity of the sclerotized NP,porcine IVD; LA 60 mg/mL,much lower
same,Relative disc height (treated IVD/untreated control IVD),porcine IVD; [2],0.55 and 0.2 and 0.33 and 0.7 and 0.36
same,Relative disc width (treated IVD/untreated control IVD),porcine IVD; [2],1 and 1.01 and 0.99 (2×) and 1.04
same,"Relative disc height, mean value",porcine IVD; [3],0.43
same,"Relative disc width, mean value",porcine IVD; [3],1.01
same,"Flexural rigidity (mm, mean ± SD)","[1]; pig L3/4 IVD, 0.2 mL LA 120 mg/mL intradiscal, n=6, difference of process distances at full flexion (lower = stiffer)",2.7 ± 1.1 mm
same,"Flexural rigidity, LA- vs placebo-injected and naive IVDs","[1]; pig, LA 120 mg/mL",marked difference in flexural rigidity
